From article PMC12472888 (Molecules, 2025)

Experiments:
Assay type in all cases: biochemical
human recombinant COX-2 = biological target: T1, human recombinant COX-2 (Homo sapiens, UniProt P35354); experiment: Cayman COX inhibitor screening kit, prostanoid enzyme immunoassay
T1 construct: gene PTGS2; homodimer; docking used mouse COX-2 (not this entry)
T1 sequence (P35354 18-604): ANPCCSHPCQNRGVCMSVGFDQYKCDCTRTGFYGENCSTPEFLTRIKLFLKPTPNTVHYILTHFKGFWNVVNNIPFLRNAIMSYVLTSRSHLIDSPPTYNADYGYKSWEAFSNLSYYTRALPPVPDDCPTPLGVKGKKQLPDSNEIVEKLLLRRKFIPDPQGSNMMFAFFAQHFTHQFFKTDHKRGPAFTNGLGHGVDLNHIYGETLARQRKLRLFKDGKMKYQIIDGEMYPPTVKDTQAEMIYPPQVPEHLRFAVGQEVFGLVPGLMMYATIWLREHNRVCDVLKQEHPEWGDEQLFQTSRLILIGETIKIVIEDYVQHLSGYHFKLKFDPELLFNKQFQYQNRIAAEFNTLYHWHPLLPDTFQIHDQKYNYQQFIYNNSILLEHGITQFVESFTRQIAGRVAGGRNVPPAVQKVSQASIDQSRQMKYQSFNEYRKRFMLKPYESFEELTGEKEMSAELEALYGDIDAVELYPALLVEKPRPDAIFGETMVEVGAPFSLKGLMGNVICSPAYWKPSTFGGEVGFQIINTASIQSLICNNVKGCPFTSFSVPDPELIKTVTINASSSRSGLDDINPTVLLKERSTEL
Source text: Cayman COX inhibitor screening kit, prostanoid enzyme immunoassay on human recombinant COX-2

[1] = biological target: T2, lipoxygenase type I-B from soybean (Glycine max, UniProt P08170); experiment: UV absorbance at […] nm, linoleate oxidation
T2 construct: gene LOX1.1; commercial native soybean enzyme (Sigma type I-B), full length
T2 sequence (P08170 1-839): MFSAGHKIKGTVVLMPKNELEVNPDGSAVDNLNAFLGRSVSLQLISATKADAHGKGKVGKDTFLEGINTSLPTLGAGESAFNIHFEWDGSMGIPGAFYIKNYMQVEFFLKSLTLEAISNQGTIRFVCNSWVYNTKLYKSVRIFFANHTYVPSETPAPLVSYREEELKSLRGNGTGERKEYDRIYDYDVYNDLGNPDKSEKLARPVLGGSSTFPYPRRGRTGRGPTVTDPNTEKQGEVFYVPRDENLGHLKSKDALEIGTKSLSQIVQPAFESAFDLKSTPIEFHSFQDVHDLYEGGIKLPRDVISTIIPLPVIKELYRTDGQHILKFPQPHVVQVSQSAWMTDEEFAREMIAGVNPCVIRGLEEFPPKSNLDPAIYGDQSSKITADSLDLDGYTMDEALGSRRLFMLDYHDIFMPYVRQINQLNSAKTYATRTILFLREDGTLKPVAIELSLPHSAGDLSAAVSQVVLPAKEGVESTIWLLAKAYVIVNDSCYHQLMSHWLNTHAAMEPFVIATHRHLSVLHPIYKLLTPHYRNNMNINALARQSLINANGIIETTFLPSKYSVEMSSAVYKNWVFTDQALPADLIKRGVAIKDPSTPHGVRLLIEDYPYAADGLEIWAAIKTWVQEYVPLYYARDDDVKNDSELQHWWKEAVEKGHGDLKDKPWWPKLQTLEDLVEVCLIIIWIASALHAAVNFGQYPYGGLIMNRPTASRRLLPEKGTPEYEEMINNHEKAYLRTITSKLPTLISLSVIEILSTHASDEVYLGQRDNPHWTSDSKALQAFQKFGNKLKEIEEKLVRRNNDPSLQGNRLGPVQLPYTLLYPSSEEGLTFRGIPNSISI

ovine COX-1 = biological target: T3, ovine COX-1 (Ovis aries, UniProt P05979); experiment: Cayman COX inhibitor screening kit, prostanoid enzyme immunoassay
T3 construct: gene PTGS1; homodimer
T3 sequence (P05979 25-600): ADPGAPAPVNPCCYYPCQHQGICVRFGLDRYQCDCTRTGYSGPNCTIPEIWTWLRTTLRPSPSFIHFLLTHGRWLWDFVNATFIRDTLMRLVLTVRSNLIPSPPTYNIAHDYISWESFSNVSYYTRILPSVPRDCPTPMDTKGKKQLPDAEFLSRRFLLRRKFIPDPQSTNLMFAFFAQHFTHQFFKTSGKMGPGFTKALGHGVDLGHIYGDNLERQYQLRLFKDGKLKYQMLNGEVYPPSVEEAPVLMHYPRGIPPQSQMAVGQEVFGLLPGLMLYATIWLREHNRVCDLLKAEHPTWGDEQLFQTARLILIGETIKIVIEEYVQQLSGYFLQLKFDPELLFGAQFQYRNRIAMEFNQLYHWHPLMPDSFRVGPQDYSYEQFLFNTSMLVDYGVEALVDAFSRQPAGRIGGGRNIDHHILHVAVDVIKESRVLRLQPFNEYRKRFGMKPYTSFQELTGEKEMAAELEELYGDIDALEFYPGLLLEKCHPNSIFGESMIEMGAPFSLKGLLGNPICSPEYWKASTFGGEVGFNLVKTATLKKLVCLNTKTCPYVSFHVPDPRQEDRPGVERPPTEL
Source text: Cayman COX inhibitor screening kit, prostanoid enzyme immunoassay on ovine COX-1

Row | inhibition at 0.05 µM (human recombinant COX-2) [%] | IC50 [1] [µM] | inhibition at 0.05 µM (ovine COX-1) [%] | SMILES
1 | 95 | 78 | 67 | CC(C)Cc1ccc(C(C)C(=O)NCCC(=O)OCCO[N+](=O)[O-])cc1 (racemic) [compound 5, 2-(Nitrooxy)ethyl-3-(2-(4-isobutylphenyl)propanamido)propanoate]
2 |  | 264 |  | CC(C)Cc1ccc(C(C)C(=O)N2CCC[C@H]2C(=O)OCCO[N+](=O)[O-])cc1 (stereo partly shown) [compound 6, 2-(Nitrooxy)ethyl-1-(2-(4-isobutylphenyl)propanoyl)pyrrolidine-2-carboxylate]
3 |  | 51 |  | COc1ccc2cc([C@H](C)C(=O)NCCC(=O)OCCO[N+](=O)[O-])ccc2c1 [compound 7, 2-(Nitrooxy)ethyl-3-(2-(6-methoxynaphthalen-2-yl)propanamido)propanoate]
4 |  | 184 |  | COc1ccc2cc([C@H](C)C(=O)N3CCC[C@H]3C(=O)OCCO[N+](=O)[O-])ccc2c1 [compound 8, 2-(Nitrooxy)ethyl-1-(2-(6-methoxynaphthalen-2-yl)propanoyl)pyrrolidine-2-carboxylate]
5 |  |  | 73 | COc1ccc2cc([C@H](C)C(=O)NCCC(=O)OCCO)ccc2c1 [compound 9, 2-Hydroxyethyl 3-(2-(6-methoxynaphthalen-2-yl)propanamido)propanoate]
